The test system of the assay is P388 leukemia ip, CD2F1 mice, survival T/C. Briefly: NCI In Vivo Anticancer Drug Screen. Data for tumor model P388 Leukemia (intraperitoneal) in CD2F1 (CDF1) mice. As to conditions: endpoint: median survival time, higher = longer survival. The method, boiled down:
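Mice carrying the transplanted tumor received test compound or vehicle. Survival was recorded in each group, and the value is the treated-group measurement divided by that of the vehicle-treated control group.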

The mark [1] stands for this setting: dose: 25.0 mg/kg/injection, schedule: Q01DX009 (ip), vehicle: saline.

Several values for one entry are separate records, joined by “and”; a condition that tells them apart may be missing. Equal entries are not always repeated. Toxic doses and inconclusive results are not listed.

In the case of `COC(=O)C1=CO[C@@H](OC2OC(CO)C(O)C(O)C2O)[C@@H]2[C@@H](C)[C@@H](O)C[C@H]12` (stereo not given in full), the T/C was 100 % of control (dose: 1.13 mg/kg/injection, schedule: Q01DX005 (ip), vehicle: water); 99 % of control (dose: 2.25 mg/kg/injection, schedule: Q01DX005 (ip), vehicle: water); 93 % of control (dose: 4.5 mg/kg/injection, schedule: Q01DX005 (ip), vehicle: water); 95 % of control (dose: 9.0 mg/kg/injection, schedule: Q01DX005 (ip), vehicle: water).
Turning to `C[C@]12C=CC(=O)C=C1CC[C@@H]1[C@@H]2C(=O)C[C@@]2(C)[C@H]1CC[C@]2(O)C(=O)CO`, the T/C by setting is: under setting [1], 106 % of control; (dose: 30.0 mg/kg/injection, schedule: Q04DX002 (sc), vehicle: Klucel (hydroxypropylcellulose) (HPC)) 100 % of control and 95 % of control; (dose: 44.0 mg/kg/injection, schedule: Q04DX002 (sc), vehicle: Klucel (hydroxypropylcellulose) (HPC)) 100 % of control; (dose: 45.0 mg/kg/injection, schedule: Q04DX002 (sc), vehicle: Klucel (hydroxypropylcellulose) (HPC)) 104 % of control; (dose: 50.0 mg/kg/injection, schedule: Q01DX001 (oral), vehicle: saline) 93 % of control; (dose: 50.0 mg/kg/injection, schedule: Q01DX005 (sc), vehicle: Klucel (hydroxypropylcellulose) (HPC)) 111 % of control. Moreover, the T/C reads like this: (dose: 50.0 mg/kg/injection, schedule: Q01DX009 (ip), vehicle: saline) 106 % of control; (dose: 50.0 mg/kg/injection, schedule: Q01DX009 (oral), vehicle: saline) 100 % of control; (dose: 67.0 mg/kg/injection, schedule: Q04DX002 (sc), vehicle: Klucel (hydroxypropylcellulose) (HPC)) 100 % of control and 104 % of control; (dose: 100.0 mg/kg/injection, schedule: Q01DX001 (oral), vehicle: saline) 100 % of control; (dose: 100.0 mg/kg/injection, schedule: Q01DX005 (sc), vehicle: Klucel (hydroxypropylcellulose) (HPC)) 111 % of control; (dose: 100.0 mg/kg/injection, schedule: Q01DX009 (ip), vehicle: saline) 106 % of control. Besides, the T/C is, setting by setting: (dose: 100.0 mg/kg/injection, schedule: Q01DX009 (oral), vehicle: saline) 114 % of control; (dose: 100.0 mg/kg/injection, schedule: Q04DX002 (sc), vehicle: Klucel (hydroxypropylcellulose) (HPC)) 98 % of control and 107 % of control; (dose: 125.0 mg/kg/injection, schedule: Q01DX001 (ip), vehicle: steriod suspending solution) 98 % of control and 95 % of control; (dose: 133.0 mg/kg/injection, schedule: Q01DX001 (sc), vehicle: Klucel (hydroxypropylcellulose) (HPC)) 100 % of control; (dose: 200.0 mg/kg/injection, schedule: Q01DX001 (oral), vehicle: saline) 100 % of control; (dose: 200.0 mg/kg/injection, schedule: Q01DX001 (sc), vehicle: Klucel (hydroxypropylcellulose) (HPC)) 100 % of control. For the same compound, the T/C is, setting by setting: (dose: 200.0 mg/kg/injection, schedule: Q01DX005 (sc), vehicle: Klucel (hydroxypropylcellulose) (HPC)) 115 % of control; (dose: 200.0 mg/kg/injection, schedule: Q01DX009 (ip), vehicle: saline) 106 % of control; (dose: 200.0 mg/kg/injection, schedule: Q01DX009 (oral), vehicle: saline) 100 % of control; (dose: 250.0 mg/kg/injection, schedule: Q01DX001 (ip), vehicle: steriod suspending solution) 91 % of control and 95 % of control; (dose: 300.0 mg/kg/injection, schedule: Q01DX001 (sc), vehicle: Klucel (hydroxypropylcellulose) (HPC)) 107 % of control; (dose: 400.0 mg/kg/injection, schedule: Q01DX001 (oral), vehicle: saline) 87 % of control. Moreover, the T/C is, setting by setting: (dose: 400.0 mg/kg/injection, schedule: Q01DX005 (sc), vehicle: Klucel (hydroxypropylcellulose) (HPC)) 115 % of control; (dose: 400.0 mg/kg/injection, schedule: Q01DX009 (ip), vehicle: saline) 106 % of control; (dose: 400.0 mg/kg/injection, schedule: Q01DX009 (oral), vehicle: saline) 114 % of control; (dose: 450.0 mg/kg/injection, schedule: Q01DX001 (sc), vehicle: Klucel (hydroxypropylcellulose) (HPC)) 108 % of control; (dose: 500.0 mg/kg/injection, schedule: Q01DX001 (ip), vehicle: steriod suspending solution) 91 % of control and 94 % of control; (dose: 800.0 mg/kg/injection, schedule: Q01DX001 (oral), vehicle: saline) 100 % of control. The T/C is 108 % of control (dose: 800.0 mg/kg/injection, schedule: Q01DX005 (ip), vehicle: Klucel (hydroxypropylcellulose) (HPC)); 113 % of control (dose: 800.0 mg/kg/injection, schedule: Q01DX005 (sc), vehicle: Klucel (hydroxypropylcellulose) (HPC)); 107 % of control (dose: 800.0 mg/kg/injection, schedule: Q01DX009 (oral), vehicle: saline); 34 % of control (dose: 1000.0 mg/kg/injection, schedule: Q01DX001 (ip), vehicle: steriod suspending solution); 116 % of control (dose: 1600.0 mg/kg/injection, schedule: Q01DX005 (ip), vehicle: Klucel (hydroxypropylcellulose) (HPC)); 100 % of control (dose: 1600.0 mg/kg/injection, schedule: Q01DX005 (sc), vehicle: Klucel (hydroxypropylcellulose) (HPC)). The T/C (dose: 6400.0 mg/kg/injection, schedule: Q01DX005 (sc), vehicle: Klucel (hydroxypropylcellulose) (HPC)) is 102 % of control.
Take `Cc1ccc(NC2SC(=O)N(Cc3ccccc3)/C2=N/N=C2\C(Nc3ccc(C)cc3)SC(=O)N2Cc2ccccc2)cc1` (stereo not given): the T/C (dose: 100.0 mg/kg/injection, schedule: Q04DX002 (ip), vehicle: Klucel (hydroxypropylcellulose) (HPC)) was 97 % of control; the T/C (dose: 200.0 mg/kg/injection, schedule: Q04DX002 (ip), vehicle: Klucel (hydroxypropylcellulose) (HPC)) was 97 % of control; the T/C (dose: 400.0 mg/kg/injection, schedule: Q04DX002 (ip), vehicle: Klucel (hydroxypropylcellulose) (HPC)) is 97 % of control.
On to `Cc1cc(-c2ccccc2)c(C)c(-c2ccccc2)c1-c1ccccc1`, for which the T/C runs as follows: (dose: 100.0 mg/kg/injection, schedule: Q04DX002 (ip), vehicle: saline with Tween-80) 99 % of control; (dose: 200.0 mg/kg/injection, schedule: Q04DX002 (ip), vehicle: saline with Tween-80) 101 % of control; (dose: 400.0 mg/kg/injection, schedule: Q04DX002 (ip), vehicle: saline with Tween-80) 96 % of control.
For `Cc1ccccc1C1(O)CCCCC1`, the T/C is 105 % of control (dose: 50.0 mg/kg/injection, schedule: Q01DX009 (ip), vehicle: saline with Tween-80); 107 % of control (dose: 100.0 mg/kg/injection, schedule: Q01DX009 (ip), vehicle: saline with Tween-80); 101 % of control (dose: 200.0 mg/kg/injection, schedule: Q01DX009 (ip), vehicle: saline with Tween-80).
Turning to `Cc1ccc(S(=O)(=O)CC(=O)CC(=O)C(=O)Nc2ccc(Cl)cc2Cl)cc1`, the T/C reads like this: (dose: 60.0 mg/kg/injection, schedule: Q01DX005 (ip), vehicle: saline with Tween-80) 100 % of control; (dose: 120.0 mg/kg/injection, schedule: Q01DX005 (ip), vehicle: saline with Tween-80) 100 % of control; (dose: 240.0 mg/kg/injection, schedule: Q01DX005 (ip), vehicle: saline with Tween-80) 100 % of control.
Regarding `C#CCOC(=O)C12CCC(C)(C)CC1C1=CCC3C4(C)CCC(O)C(C)(CO)C4CCC3(C)C1(C)CC2` (stereo not given), the T/C is 101 % of control (dose: 12.5 mg/kg/injection, schedule: Q01DX005 (ip), vehicle: saline with Tween-80) and 94 % of control (dose: 25.0 mg/kg/injection, schedule: Q01DX005 (ip), vehicle: saline with Tween-80).
As for `CCC/C(=N\O)S(=O)(=O)c1ccc(NN=O)nc1`, the T/C was 107 % of control (dose: 3.12 mg/kg/injection, schedule: Q01DX009 (ip), vehicle: saline); 108 % of control and 110 % of control (dose: 6.25 mg/kg/injection, schedule: Q01DX009 (ip), vehicle: saline); 116 % of control and 118 % of control (dose: 12.5 mg/kg/injection, schedule: Q01DX009 (ip), vehicle: saline); 150 % of control under setting [1].
On to `COC(=O)[C@@]12OC[C@]34[C@H]([C@@H](O)[C@@H]1O)[C@@]1(C)C=C(OC5OC(CO)C(O)C(O)C5O)C(=O)C(C)[C@@H]1C[C@H]3OC(=O)[C@H](OC(=O)C=C(C)C)[C@@H]24` (stereo not given in full), for which the T/C runs as follows: (dose: 0.25 mg/kg/injection, schedule: Q01DX009 (ip), vehicle: saline + alcohol) 107 % of control; (dose: 0.5 mg/kg/injection, schedule: Q01DX009 (ip), vehicle: saline + alcohol) 112 % of control; (dose: 1.0 mg/kg/injection, schedule: Q01DX009 (ip), vehicle: saline + alcohol) 112 % of control; (dose: 2.0 mg/kg/injection, schedule: Q01DX009 (ip), vehicle: saline + alcohol) 106 % of control; (dose: 4.0 mg/kg/injection, schedule: Q01DX009 (ip), vehicle: saline + alcohol) 112 % of control; (dose: 8.0 mg/kg/injection, schedule: Q01DX009 (ip), vehicle: saline + alcohol) 111 % of control.

These data come from PubChem BioAssay AID330 (DTP/NCI, 2004).
